Reference: patent publication US8293786B2 (Alltranz Inc., priority 2007, dated 2012)

Key:
human abdominal skin = assay: In vitro human skin permeation and skin disposition, flow-through diffusion cells (Examples 2, 2A, 2B); type: in vitro ADME; settings: for 42 h cumulative amt / Flux / Lag time / 42 h skin conc / Flux enhancement: Table 16, 60/40 Hanks'/PEG 400 receiver fluid; for 42 h cumulative amt / Flux / Lag time / 42 h skin conc / Flux enhancement / 30 h skin conc: 90:8:2 PG:H2O:IPM donor solution; for Flux enhancement: total cannabidiol versus cannabidiol; for detected in the skin as / flux compared to cannabidiol / lag time compared to cannabidiol / permeated through the skin as / total skin concentrations compared to cannabidiol: in donor solution; for 30 h skin conc: Table 17, 40% aqueous PEG 400 receiver fluid
Description: Flow through diffusion cells were used for the permeation studies. HEPES-buffered Hanks' balanced salts containing 40% PEG 400 with gentamicin or 40% aqueous PEG 400 with gentamicin were used for the receiver compartment. Donor solution was comprised of 90:8:2 PG:H2O:IPM solution or gel formulation. […] Drug accumulation in the skin after a 24, 30 or 42 h diffusion experiment was determined as μmol/g wet tissue weight.
The skin samples used in the following experiments were obtained from abdominal reduction surgery and dermatomed to a thickness of approximately 200 μm. The skin samples used herein were frozen at −20° C. for less than six months.
One (1) L of receiver fluid was prepared by measuring 1 L of nanopure water into a graduated cylinder. 90% of the water was added to an Erlenmeyer flask. Hanks' salts (1 bottle) were added to the water along with 5.96 g of HEPES and 0.35 g of sodium bicarbonate. The pH of the solution was adjusted with 1 N sodium hydroxide solution to pH 7.4. The remaining water was added and the receiver fluid was filtered through a 0.2μ filter (Millipore, Billerica, Mass.). Fifty (50) mg of gentamicin was added to the filtered receiver fluid and 400 mL of the receiver fluid was removed and replaced with 400 mL of PEG 400.
The receiver fluid was prepared by measuring 600 mL of nanopure H2O into a graduated cylinder. The H2O was filtered through a 0.2μ filter (Millipore, Billerica, Mass.). Fifty (50) mg of gentamicin was added to the filtered H2O and 400 mL of PEG 400 was added.
The prodrugs were made up in a solution of 45:4:1 PG:H2O:IPM. For this solution, the appropriate amount of drug was weighed into a glass silanized culture tube and IPM was added, the 50 μL of PG to coat the drug, then an additional 247 μL PG was added and the donor solution was vortexed again. Finally 26 μL of water was added. The gel formulation resulted from the mixing of absolute ethanol, nanopure water, IPM, Carbopol® 980, 0.1 N sodium hydroxide solution and the respective drug.
The gel formulation was comprised of absolute ethanol, nanopure water, IPM, Carbopol® 980, 0.1 sodium hydroxide solution and respective drug. The anhydrous gel was comprised of absolute ethanol, PEG monoethyl ether 550, Klucel® hydroxypropylcellulose, and respective drug.
Dermatomed skin harvested from abdominoplasty, stored at −20° C., was used for the experiments. A PermeGear flow-through (In-Line, Hellertown, Pa.) diffusion cell system was used for the skin permeation studies.
Diffusion cells were kept at 32° C. with a circulating water bath. Human epidermal skin was arranged in the diffusion cell with stratum corneum (upper layer of skin) facing the donor compartment. The permeation area of the skin was 0.95 cm^2. The data was collected from a human skin donor with three diffusion cells per treatment.
The receiver solution was HEPES-buffered Hanks' balanced salts with gentamicin containing 40% PEG 400 at a pH of 7.4 or 40% aqueous PEG 400 and flow rate was adjusted to 0.8 mL/h. Each cell was charged with 0.10 mL of the respective drug formulation (donor solution) or 50 μL of gel formulation which was rubbed into the skin for 15 sec with a Teflon coated rod. The formulation was applied to ensure complete coverage. […]. Diffusion cells were covered with a stopper or cap for the duration of the study.
Samples were collected into scintillation vials in 3 h increments for either 24, 30, or 42 h. All the samples were stored at 4° C. until extracted. An aliquot (0.5 mL) of the diffusion sample was placed into a silanized HPLC vial and 0.5 mL of acetonitrile was added to the sample, capped and vortexed.
At the end of the experiment, the skin tissue was removed from the diffusion cell, rinsed with nanopure water, and blotted dry with a paper towel. The skin was tape stripped twice using book tape (Scotch™, 3M, St. Paul, Minn.) to remove drug formulation adhering to the tissue surface.

[1] = Plasma stability of cannabidiol prodrugs (bioconversion to parent drug); type: in vitro ADME; settings: Table 20; for % Prodrug at time (h): mono-prodrug in plasma; for % mono-prodrug at time (h) / % Di-prodrug at time (h): di-prodrug in plasma; for % mono-prodrug at time (h): mono-prodrug formed
Description: An approximated 1 mg/mL stock solution of each prodrug was prepared in 100 μL of ethanol and 900 μL of acetonitrile. Ten (10) μL of stock was spiked into 1 mL of plasma and vortexed. The samples were kept sealed in an amber vial and samples were obtained to analyze for bioconversion to parent drug.

[2] = as applied compound (CBD or intact prodrug)
[3] = prodrug applied, as total cannabidiol equivalents
[4] = mono-prodrug (ALL00131) from applied di-prodrug

SMILES | 42 h cumulative amt (human abdominal skin; CBD from applied prodrug) [nmol] | Flux (human abdominal skin; CBD from applied prodrug) [nmol/cm^2/h] | Lag time (human abdominal skin; CBD from applied prodrug) [h] | 42 h cumulative amt (human abdominal skin; [2]) [nmol] | 42 h skin conc (human abdominal skin; [2]) [µmol/g] | Flux (human abdominal skin; [2]) [nmol/cm^2/h] | Lag time (human abdominal skin; [2]) [h] | 42 h cumulative amt (human abdominal skin; [3]) [nmol] | 42 h skin conc (human abdominal skin; [3]) [µmol/g] | Flux (human abdominal skin; [3]) [nmol/cm^2/h] | Lag time (human abdominal skin; [3]) [h] | Flux enhancement (human abdominal skin) | detected in the skin as (human abdominal skin) | flux compared to cannabidiol (human abdominal skin) | lag time compared to cannabidiol (human abdominal skin) | permeated through the skin as (human abdominal skin) | total skin concentrations compared to cannabidiol (human abdominal skin) | % Prodrug at time (h) ([1]; 0 h) [%] | % Prodrug at time (h) ([1]; 24 h) [%] | % mono-prodrug at time (h) ([1]; 1 h) [%] | further results
C=C(C)[C@@H]1CCC(C)=C[C@H]1c1c(O)cc(CCCCC)cc1OC(=O)COCCOCCOCCOC [ALL00131, CBD 3,6,9,12-tetraoxatridecanoate] | 15.4 ± 2.0 | 0.6 ± 0.1 | 9.6 ± 3.0 | 54.9 ± 22.1 | 12.5 ± 5.5 | 2.3 ± 0.8 | 13.7 ± 1.9 | 70.3 ± 20.4 | 12.5 ± 5.5 | 2.8 ± 0.7 | 12.9 ± 1.6 | 0.43 | only as prodrug | did not increase the flux | similar | intact prodrug and cannabidiol | not higher | 100 | 14 |  | % Prodrug at time (h) ([1]; 1 h): 64%; % Prodrug at time (h) ([1]; 2 h): 42%; % Prodrug at time (h) ([1]; 4 h): 24%; % Prodrug at time (h) ([1]; 6 h): 14%
C=C(C)[C@@H]1CCC(C)=C[C@H]1c1c(OC(=O)COCCOCCOCCOC)cc(CCCCC)cc1OC(=O)COCCOCCOCCOC [ALL00132, CBD di(3,6,9,12-tetraoxatridecanoate)] | 10.0 ± 0.4 | 0.4 ± 0.1 | 11.8 ± 4.2 | 26.4 ± 17.0 | 2.9 ± 1.3 | 1.4 ± 0.4 | 19.2 ± 4.9 | 59.5 ± 23.8 | 3.5 ± 1.7 | 2.6 ± 0.5 | 14.9 ± 3.8 | 0.40 | prodrug and small amounts as mono-substituted prodrug, ALL00131 | did not increase the flux | wasn't decreased | intact prodrug, mono-substituted prodrug (ALL00131), and cannabidiol | not higher |  |  | 52 | 42 h cumulative amt (human abdominal skin; [4]): 23.0 ± 7.1 nmol; 42 h skin conc (human abdominal skin; [4]): 0.6 ± 0.1 µmol/g; Flux (human abdominal skin; [4]): 0.8 ± 0.2 nmol/cm^2/h; Lag time (human abdominal skin; [4]): 9.1 ± 3.3 h; % mono-prodrug at time (h) ([1]; 2 h): 44%; % mono-prodrug at time (h) ([1]; 4 h): 24%; % mono-prodrug at time (h) ([1]; 6 h): 15%; % mono-prodrug at time (h) ([1]; 24 h): 2%; % Di-prodrug at time (h) ([1]; 0 h): 100%; % Di-prodrug at time (h) ([1]; 1 h): 28%; % Di-prodrug at time (h) ([1]; 2 h): 15%; % Di-prodrug at time (h) ([1]; 4 h): 0%; % Di-prodrug at time (h) ([1]; 6 h): 0%; % Di-prodrug at time (h) ([1]; 24 h): 0%
C=C(C)[C@@H]1CCC(C)=C[C@H]1c1c(O)cc(CCCCC)cc1OC(=O)[C@@H](O)CO [ALL00137, CBD (S)-2,3-dihydroxypropanoate] |  |  |  |  |  |  |  |  |  |  |  |  | prodrug and trace amounts of cannabidiol |  |  | did not permeate through the skin or was below detection in the receiver samples | not higher | 89 | 4 |  | 30 h skin conc (human abdominal skin; CBD from applied prodrug): 0.3 ± 0.0 µmol/g; 30 h skin conc (human abdominal skin; [2]): 0.9 ± 0.3 µmol/g; 30 h skin conc (human abdominal skin; [3]): 1.0 ± 0.5 µmol/g; % Prodrug at time (h) ([1]; 1 h): 73%; % Prodrug at time (h) ([1]; 3 h): 60%
C=C(C)C1CCC(C)=CC1c1c(O)cc(CCCCC)cc1OC(=O)COCCOCCOC (stereo not shown) [ALL00140, CBD 2-[2-(2-methoxyethoxy)ethoxy]acetate] | 24.1 ± 3.3 | 0.9 ± 0.1 | 9.0 ± 2.7 | 34.3 ± 15.5 | 12.7 ± 6.6 | 1.3 ± 0.5 | 12.6 ± 2.5 | 58.1 ± 15.5 | 13.2 ± 6.9 | 2.2 ± 0.5 | 11.2 ± 2.2 | 0.33 | mostly as prodrug in the skin with small amounts of cannabidiol | did not increase the flux | slightly decreased | intact prodrug and cannabidiol | not higher | 100 | 0 |  | 42 h skin conc (human abdominal skin; CBD from applied prodrug): 0.5 ± 0.3 µmol/g; % Prodrug at time (h) ([1]; 2 h): 0%; % Prodrug at time (h) ([1]; 20 h): 0%
C=C(C)[C@@H]1CCC(C)=C[C@H]1c1c(OC(C)=O)cc(CCCCC)cc1OC(C)=O [ALL00142, CBD Diacetate] |  |  |  |  |  |  |  |  |  |  |  |  | only as intact prodrug |  |  | did not permeate through the skin or was below detection in the receiver samples | not higher |  |  | 0 | 30 h skin conc (human abdominal skin; [2]): 5.5 ± 0.3 µmol/g; 30 h skin conc (human abdominal skin; [3]): 5.5 ± 0.3 µmol/g; % mono-prodrug at time (h) ([1]; 3 h): 0%; % mono-prodrug at time (h) ([1]; 24 h): 0%; % Di-prodrug at time (h) ([1]; 0 h): 100%; % Di-prodrug at time (h) ([1]; 1 h): 98%; % Di-prodrug at time (h) ([1]; 3 h): 90%; % Di-prodrug at time (h) ([1]; 24 h): 10%
C=C(C)[C@@H]1CCC(C)=C[C@H]1c1c(OC(=O)OC)cc(CCCCC)cc1OC(=O)OC [ALL00143, CBD Bis(Methyl Carbonate)] |  |  |  |  |  |  |  |  |  |  |  |  | prodrug and trace amounts of cannabidiol |  |  | did not permeate through the skin or was below detection in the receiver samples | not higher |  |  | 0 | 30 h skin conc (human abdominal skin; CBD from applied prodrug): 0.5 ± 0.0 µmol/g; 30 h skin conc (human abdominal skin; [2]): 5.8 ± 3.0 µmol/g; 30 h skin conc (human abdominal skin; [3]): 6.0 ± 3.2 µmol/g; % mono-prodrug at time (h) ([1]; 3 h): 0%; % mono-prodrug at time (h) ([1]; 24 h): 0%; % Di-prodrug at time (h) ([1]; 0 h): 100%; % Di-prodrug at time (h) ([1]; 1 h): 82%; % Di-prodrug at time (h) ([1]; 3 h): 76%; % Di-prodrug at time (h) ([1]; 24 h): 65%
